Test results reported in patent publication EP1273297A1, “Vitamin E for the treatment of diseases in which the binding of the transcription factor NF-KB and/or AP-1 to promoter target sites has a beneficial effect (eg AIDS, cardiac infarction)” (Deutsches Krebsforschungszentrum Stiftung des öffentlichen …, priority 2001, dated 2003).

Key:
NF-κB [1] = assay: EMSA, nuclear extracts of J-27 T cells, binding to CD95L promoter NF-κB sites; assay type: cell-based; conditions: J-27 nuclear extracts, PMA/ionomycin 2 h, 50 µM vitamin E added 1 h before induction (Fig. 3A)
Experimental: (§1) (A)^32P-labeled oligonucleotides containing the CD95L NF-κB (at the promoter -530 and -50 region) (Li-Weber et al., Eur. J. Immunol. 30 (2000), 661) and AP-1 (at the promoter +90 region) (Eichhorst et al., Mol. Cell. Biol. 20 (2000), 7826) binding sequences were analyzed by EMSA as described (Li-Weber et al., (2000). The EMSA probes had the following sequences: • CD95L NF-κB at-530: 5'-[…]-3' • CD95L NF-κB at-50: 5'-[…]-3' • CD95L AP-1 at +90: 5'-[…]-3'
(§2) Nuclear extracts were prepared from J-27 T cells either non-induced (-) or induced (+) for 2 h by PMA (10 ng/ml) and ionomycin (0.5 µM) in the absence (-) or presence (+) of 50 µM vitamin E (VE) (added 1 h before induction). The inducible complex corresponding to NF-κB and AP-1 were indicated. A NF-Y binding oligonucleotide 5'[…]-3' was used for equal loading of nuclear extracts.
(§3) It was investigated whether vitamin E affects NF-KB and AP-1 binding to the CD95L promoter target sites. Nuclear extracts were prepared from J-27 T cells stimulated in the presence or absence of vitamin E. The NF-κB and AP-1 binding sites contained in the CD95L promoter were used as probes in an electrophoretic-mobility-shift-assay (EMSA). Stimulation of T cell with PMA and ionomycin induced binding of nuclear factors to the NF-κB and AP-1 sites of the CD95L promoter (Fig. 3A). […]

AP-1 [2] = assay: EMSA, nuclear extracts of J-27 T cells, binding to CD95L promoter AP-1 site; assay type: cell-based; conditions: J-27 nuclear extracts, PMA/ionomycin 2 h, 50 µM vitamin E added 1 h before induction (Fig. 3A)
Experimental: as §1, §2, §3

NF-Y = assay: EMSA control, constitutive transcription factor, NF-Y binding oligonucleotide; assay type: cell-based; conditions: J-27 nuclear extracts, 50 µM vitamin E (Fig. 3A)
Experimental: as §2
It was investigated whether vitamin E affects NF-KB and AP-1 binding to the CD95L promoter target sites. Nuclear extracts were prepared from J-27 T cells stimulated in the presence or absence of vitamin E. The NF-κB and AP-1 binding sites contained in the CD95L promoter were used as probes in an electrophoretic-mobility-shift-assay (EMSA). Stimulation of T cell with PMA and ionomycin induced binding of nuclear factors to the NF-κB and AP-1 sites of the CD95L promoter (Fig. 3A). These inducible binding complexes were either reduced or supershifted in the presence of antibodies against the subunits p50 and p65 of NF-κB or antibodies against the AP-1 family members Jun and Fos (Fig. 3B). […] As a control, the constitutive transcription factor […] was not affected by vitamin E (Fig. 3A). Experimental details are given in the legend to Figure 3.

CD95L promoter = assay: Luciferase reporter assay in transiently transfected J-27 T cells, 0.86-kb CD95L promoter; assay type: cell-based; conditions: J-27 cells, 50 µM vitamin E 1 h, PMA/ionomycin 8 h (Fig. 4)
Source text: (§4) J-27 T cells were transiently transfected with the luciferase reporter constructs containing the 0.86-kb CD95L promoter (Li-Weber et al., Eur. J. Immunol. 30 (2000), 661), or three copies of the NF-κB binding sites at -530 or -50 region (Li-Weber et al., Eur. J. Immunol. 30 (2000), 661) or the AP-1 motif at +90 region (Eichhorst et al., Mol. Cell. Biol. 20 (2000), 7826) of the CD95L promoter as described in Li-Weber et al., 2000. All promoter constructs are described in the cited references. A luciferase reporter construct containing three copies of the Egr consensus binding site was used as a control (Li-Weber et al., Eur. J. Immunol. 29 (1999), 3017). After overnight culture, the cells were divided and treated with vitamin E (VE) (50 µM) or the vitamin E solvent ethanol for 1 h and than further cultured in the absence (empty box) or presence (black box) of PMA (10 ng/ml) and ionomycin (0.5 µM). Luciferase activity was determined after 8 h of stimulation. Results represent the average of three to five independent transfection experiments.
(§5) To further investigate the effect of vitamin E on CD95L expression, the CD95L promoter (-860 to +100) or a minimal TATA promoter containing three copies of either the NF-B or the AP1 sites of the CD95L promoter were linked to the luciferase reporter gene and these constructs were transiently transfected into J-27 T cells. […]

NF-κB [3] = assay: Luciferase reporter assay in J-27 T cells, three copies of the CD95L promoter NF-κB binding sites; assay type: cell-based; conditions: J-27 cells, 50 µM vitamin E 1 h, PMA/ionomycin 8 h (Fig. 4)
Source text: as §4, §5

AP-1 [4] = assay: Luciferase reporter assay in J-27 T cells, three copies of the CD95L promoter AP-1 motif; assay type: cell-based; conditions: J-27 cells, 50 µM vitamin E 1 h, PMA/ionomycin 8 h (Fig. 4)
Source text: as §4, §5

Egr binding site = assay: Luciferase reporter assay in J-27 T cells, three copies of the Egr consensus binding site (control); assay type: cell-based; conditions: J-27 cells, 50 µM vitamin E 1 h, PMA/ionomycin 8 h, control (Fig. 4)
Source text: as §4, §5

CD95L mRNA = CD95L mRNA levels by RT-PCR in peripheral blood lymphocytes of HIV positive individuals; assay type: cell-based, human; conditions: 25 µM vitamin E 1 h, α-CD3 12 h (Fig. 5)
Experimental: Freshly isolated peripheral blood lymphocytes from HIV positive individuals were treated without or with vitamin E (VE) (25 µM) for 1 h and than stimulated with plate bound α-CD3 ([…]) for 12 h. CD95L mRNA levels were examined by RT-PCR (Eichhorst et al., 2000). Results from 5 individuals are shown.
It was investigated whether vitamin E could block CD95L expression in the peripheral blood lymphocytes of HIV positive individuals. Peripheral blood lymphocytes from such individuals were subjected to analysis of the CD95L mRNA expression levels in the absence or the presence of vitamin E. Different levels of the CD95L mRNA expression were found in lymphocytes from different HIV patients examined. […] Experimental details are given in the legend to Figure 5.

[5] = system: peripheral blood lymphocytes of HIV positive individuals; assay: AICD of peripheral blood lymphocytes of HIV positive individuals stimulated with plate bound α-CD3; assay type: cell-based, human
Experimental: Peripheral blood lymphocytes from HIV positive individuals (n = 33 Patients) and uninfected donors (11 Donors) were stimulated with plate bound (α-CD3 (50 µg/ml) for 48 h. Apoptosis was assessed by a drop in the forward to side scatter profile of apoptotic in comparison to living cells. The mean difference between patients and uninfected individuals is -7.23. 95% confidence interval is -13.7, -2.12.
Freshly isolated blood lymphocytes from 31 HIV positive individuals were stimulated with plate bound α-CD3 in the absence or presence of either 50 µg/ml CD95-Fc or 25 µM vitamin E (VE) (added 1 h before stimulation). IgG-1 (50 µg/ml), Sigma (St. Louis, MO, USA) was used as control. Cell death was assessed after 48 h stimulation.
To determine if vitamin E could reduce depletion of T cells from HIV positive individuals next the effects of vitamin E on AICD in peripheral blood lymphocytes of such individuals were analyzed. […] As opposed to lymphocytes from healthy donors lymphocytes isolated from HIV-infected individuals were more susceptible to apoptosis (Fig. 6A). […] Experimental details are given in the legend to Figure 6.

## Cc1c(C)c2c(c(C)c1O)CC[C@@](C)(CCC[C@H](C)CCC[C@H](C)CCCC(C)C)O2 [vitamin E, α-tocopherol]
NF-κB [1]
  binding of NF-κB to its binding sites of the CD95L promoter (-530 and -50 region): prevented binding
AP-1 [2]
  binding of AP-1 to its binding site of the CD95L promoter (+90 region): prevented binding
NF-Y
  NF-Y binding (constitutive loading control): not affected
CD95L promoter
  luciferase expression driven by the CD95L promoter: greatly reduced
NF-κB [3]
  luciferase expression driven by the NF-κB site of the CD95L promoter: greatly reduced
AP-1 [4]
  luciferase expression driven by the AP-1 site of the CD95L promoter: greatly reduced
Egr binding site
  luciferase expression driven by the Egr binding site: did not affect
CD95L mRNA
  expression of CD95L mRNA: completely blocked in most patients
[5]; 31 HIV positive individuals, α-CD3, 25 µM vitamin E added 1 h before stimulation, 48 h (Fig. 6B)
  AICD: greatly reduced
[5]; HIV positive individuals, 25 µM vitamin E vs 50 µg/ml CD95-Fc (Fig. 6B)
  reduction of AICD compared with that obtained by CD95-Fc: even more pronounced
